Experimental data reported in patent EP0366451A2, “The use of oxidized polyamines, especially NN'-Bis-(3-propionaldehyde)-1-4-diaminobutane (sperminedialdehyde) as immunosuppressive agents” (ORTHO PHARMACEUTICAL CORPORATION, priority 1988, dated 1990).
“Also recorded” adds a separate entry of the source.

Experiments:
[1] = Preliminary in vitro alkylation studies
[2] = test system: splenic T cell; assay: Concanavalin A-stimulated splenic T cell proliferation ([3H]-thymidine incorporation); type: cell-based, Mouse
Procedure: Splenic cells were treated with various concentrations of SDA or an analogue for 30 min. at 37°C. Cells were washed and cultured in the presence of Concanavalin A for 3 days. [³H] Thymidine 0.1µCi/well was added and cells were harvested after 18-24 hrs.
Mouse spleen cells were cultured for 3 days in flat bottom microtiter relates at 10⁵ cells per well in the presence of […] of Con A. 3H-thymidine (0.1 microcurie/well) was added for the last 4-6 hours of the culture period. Cells were harvested as described above.
For [³H]-thymidine incorporation, drug or vehicle treated bone marrow or spleen cells were plated in RPMI-1640, containing 10% fetal bovine serum, 10 µM β-mercaptoethanol, 25 mM HEPES and 2 mM glutamine. Con-A (4 µg/ml and […]) was used as mitogens for bone marrow and spleen cells. Three days later, [³H]-thymidine (0.2 µCi/well) was added and cells were harvested after 12-18 hrs. L1210/CPA and L1210/0 cells (0.1 - 1 x 10⁵ cells/well were plated in RPMI-1640 containing 10% horse serum. [³H]-thymidine was added after 24 hrs and cells were filtered on GF/B filter paper for scintillation counting.

[3] = molecular target: T1, S-Adenosylmethionine Decarboxylase (AdoMet DC) (Mus musculus, UniProt P0DMN7); assay: AdoMet DC inhibition in L1210 cell supernatants ([14C]CO2 release); type: biochemical, Murine; details: for inhibition of AdoMet DC (in words): Fig. 9 and Figure 10
T1 construct: endogenous in cells; host or cells: murine leukemic L1210 cells (supernatant)
T1 sequence (P0DMN7 68-334 limits assumed): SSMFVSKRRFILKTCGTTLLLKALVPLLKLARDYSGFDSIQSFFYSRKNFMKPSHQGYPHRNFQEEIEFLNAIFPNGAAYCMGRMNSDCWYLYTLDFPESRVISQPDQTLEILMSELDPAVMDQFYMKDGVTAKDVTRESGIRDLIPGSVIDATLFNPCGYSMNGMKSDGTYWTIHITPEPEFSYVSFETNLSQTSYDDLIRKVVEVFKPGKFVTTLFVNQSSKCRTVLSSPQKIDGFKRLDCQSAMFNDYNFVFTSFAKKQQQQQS
T1 sequence (P0DMN7 1-67 limits assumed): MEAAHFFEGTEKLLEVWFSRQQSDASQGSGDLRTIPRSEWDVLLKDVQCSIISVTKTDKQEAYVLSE
Procedure: Murine leukemic L1210 cell supernatants were incubated with different concentrations of SDA or butyl dialdehyde, and AdoMet DC activity was estimated by monitoring the release of [¹⁴C] CO₂. Inhibition curves for both drugs were superimposable with IC₅₀ values of 0.12-0.13 x 10⁻³ M.

[4] = test system: cytosolic ALDH; assay: NAD-linked cytosolic ALDH assay, L1210/CPA cells; type: biochemical, Murine
Procedure: (§1) Cultured murine leukemic cells and livers (excised from mice immediately after cervical dislocation) were homogenized in 3 volumes of ice-cold 1.15% KCl and 1 mM EDTA. The homogenate was centrifuged at 100,000 g for 45 min and the resulting supernatant was used to measure cytosolic ALDH activity. For particulate ALDH assay, the pellet (and homogenate for total ALDH) was resuspended in homogenizing buffer and treated with 0.25% Triton X-100 for 30 min at 4°C. The solubilized preparations were centrifuged at 48,000 g for 30 min and the supernatants were drawn off for ALDH determinations.
(§2) ALDH activity was measured by monitoring the reduction of NAD or NADp for 5-6 min at […] at 37°C in DU70 spectrophotometer (Beckman). The assay mixture contained 50 mM potassium phosphate buffer, pH 7.4, 2.0 mM NAD (or NADP) and 1.0 mM EDTA. The reaction was started by adding the substrate (SDA or other aldehyde) to the prewarmed (5 min at 37°C) assay mixture containing enzyme preparation. Pyrazole (0.1 mM) was added particularly for liver enzyme, to inhibit alcohol dehydrogenase. The apparent Km and maximum velocity (Vmax) values were calculated using a Lineweaver-Burk plot based on the estimation of the slope by regression analysis. Enzyme activity was expressed as mU (nmoles/min) per mg of protein. Protein contents were determined by the Bradford method, using bovine serum albumin as the standard.

[5] = test system: NADP-linked cytosolic ALDH; assay: NADP-linked cytosolic ALDH assay, L1210/CPA cells; type: biochemical, Murine; details: SDA as substrate; read-out: 50% inhibition at
Procedure: as §1
as §2, with “standard. […]” for “standard.”

[6] = test system: tumor cells and hemopoietic progenitor cells; assay: Cytotoxicity of ALDH inhibitors ex vivo; type: cell-based; details: at concentrations much lower than needed for complete inhibition of ALDH
Source text: Both disulfiram and acrolein were very toxic to tumor cells and hemopoietic progenitor cells ex vivo at concentrations much lower than that needed for complete inhibition of ALDH. […] Therefore, in subsequent experiments, DEAB was chosen to study the survival of leukemic cells and myeloid progenitor cells after treatment with SDA.

[7] = molecular target: Ornithine decarboxylase (Mus musculus, UniProt P00860); assay: Ornithine decarboxylase inhibition; type: biochemical; details: Figure 10
Source text: The figure illustrates the comparative profile of the inhibition of key regulatory enzymes of polyamine synthesis by SDA, its analogue, butyl dialdehyde (BDA), difluoromethyl orinithine (DFMO) and methyl glyoxal bis (guanylhydrazone) (MGBG).

[8] = test system: Cytosolic ALDH in mouse liver; assay: NAD-linked cytosolic ALDH assay, mouse liver; type: biochemical; details: as substrate, mouse liver cytosol
Procedure: as §1, §2

Chain of Ornithine decarboxylase (P00860 whole entry): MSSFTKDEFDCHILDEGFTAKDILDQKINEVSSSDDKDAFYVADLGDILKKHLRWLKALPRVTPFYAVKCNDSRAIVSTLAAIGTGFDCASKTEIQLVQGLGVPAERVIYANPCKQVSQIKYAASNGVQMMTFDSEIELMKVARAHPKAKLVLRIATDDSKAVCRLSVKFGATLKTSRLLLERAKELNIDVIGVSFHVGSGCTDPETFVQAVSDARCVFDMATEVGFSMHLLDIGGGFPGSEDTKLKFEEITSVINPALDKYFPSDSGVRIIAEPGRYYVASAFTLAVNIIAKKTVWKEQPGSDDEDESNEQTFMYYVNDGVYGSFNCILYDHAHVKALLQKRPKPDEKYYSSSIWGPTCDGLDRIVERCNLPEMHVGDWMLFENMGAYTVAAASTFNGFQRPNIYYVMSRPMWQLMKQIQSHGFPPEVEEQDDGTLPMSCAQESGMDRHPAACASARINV

Compound: CC(=O)CCNCCCCNCCC(C)=O [ANALOGUE # 3]
- alkylation [1]: nonspecific alkylating agents

Compound: Nc1ncnc2c1nc(Sc1cc3c(cc1Br)OCO3)n2CCc1ccccc1Cl [ANALOGUE # 4]
- alkylation [1]: nonspecific alkylating agents

Compound: O=CCCCNCCCCNCCCC=O [ANALOGUE # 7, butyl dialdehyde]
- potency in proliferation assays compared with SDA ([2]; Fig. 8): less potent than SDA
- fold less potent than SDA ([2]; Figure 8): 30 fold
- inhibition of AdoMet DC (in words) [3]: selectively inhibited adenosylmethionine decarboxylase
- IC50 ([3]; Figure 9, inhibition curves superimposable, read-out: IC₅₀ values): 120 to 130 µM

Compound: C=CC=O [Acrolein]
- IC50 ([4]; SDA (1.0 mM) as substrate, pretreated with inhibitor 5 min at 37°C, read-out: Inhibition (IC₅₀)): 2.5 ± 0.63 µM
- IC50 [5]: 50 to 100 µM
- toxicity to tumor cells and hemopoietic progenitor cells ex vivo [6]: very toxic

Compound: NCCCC(N)(C(=O)O)C(F)F (stereo not drawn) [DFMO, difluoromethyl orinithine, reference compound]
- inhibition of ODC (in words) [7]: inhibited ODC with high potency
- inhibition of AdoMet DC (in words) [3]: compensatory increase in AdoMetDC

Compound: CCN(CC)C(=S)SSC(=S)N(CC)CC [Disulfiram]
- toxicity to tumor cells and hemopoietic progenitor cells ex vivo [6]: very toxic

Compound: CC(C=NNC(=N)N)=NNC(=N)N [MGBG, methyl glyoxal bis (guanylhydrazone), reference compound]
- inhibition of AdoMet DC (in words) [3]: inhibited AdoMetDC; also recorded: selectively reduced AdoMet IC activity

Compound: CCC=O [Propionaldehyde]
- Km ([4]; as substrate, L1210/CPA cytosol, NAD, ± SEM, 3-4 experiments): 26.5 ± 4.9 µM
- Specific (activity of ALDH) ([4]; as substrate, L1210/CPA cytosol, propionaldehyde 1.0 mM): 10.5 ± 3.2 mU/mg Protein
- Km ([8]; NAD, ± SEM, 3-4 experiments): 14 ± 2.8 µM
- Specific (activity of ALDH) ([8]; propionaldehyde 1.0 mM): 22.5 ± 3.9 mU/mg Protein

Compound: c1cn[nH]c1 [Pyrazole]
- effect on L1210/CPA cytosolic enzyme ([4]; SDA as the substrate, data not shown): had no effect
